These results are taken from paper PMC11596857 (Molecules, 2024).

For test [1], the target named is T1, proline utilization A (SmPutA) (Sinorhizobium meliloti, UniProt F7X6I3).
T1 construct: gene putA; bifunctional PRODH-GSALDH enzyme, His tag removed
T1 sequence (F7X6I3 1-1233): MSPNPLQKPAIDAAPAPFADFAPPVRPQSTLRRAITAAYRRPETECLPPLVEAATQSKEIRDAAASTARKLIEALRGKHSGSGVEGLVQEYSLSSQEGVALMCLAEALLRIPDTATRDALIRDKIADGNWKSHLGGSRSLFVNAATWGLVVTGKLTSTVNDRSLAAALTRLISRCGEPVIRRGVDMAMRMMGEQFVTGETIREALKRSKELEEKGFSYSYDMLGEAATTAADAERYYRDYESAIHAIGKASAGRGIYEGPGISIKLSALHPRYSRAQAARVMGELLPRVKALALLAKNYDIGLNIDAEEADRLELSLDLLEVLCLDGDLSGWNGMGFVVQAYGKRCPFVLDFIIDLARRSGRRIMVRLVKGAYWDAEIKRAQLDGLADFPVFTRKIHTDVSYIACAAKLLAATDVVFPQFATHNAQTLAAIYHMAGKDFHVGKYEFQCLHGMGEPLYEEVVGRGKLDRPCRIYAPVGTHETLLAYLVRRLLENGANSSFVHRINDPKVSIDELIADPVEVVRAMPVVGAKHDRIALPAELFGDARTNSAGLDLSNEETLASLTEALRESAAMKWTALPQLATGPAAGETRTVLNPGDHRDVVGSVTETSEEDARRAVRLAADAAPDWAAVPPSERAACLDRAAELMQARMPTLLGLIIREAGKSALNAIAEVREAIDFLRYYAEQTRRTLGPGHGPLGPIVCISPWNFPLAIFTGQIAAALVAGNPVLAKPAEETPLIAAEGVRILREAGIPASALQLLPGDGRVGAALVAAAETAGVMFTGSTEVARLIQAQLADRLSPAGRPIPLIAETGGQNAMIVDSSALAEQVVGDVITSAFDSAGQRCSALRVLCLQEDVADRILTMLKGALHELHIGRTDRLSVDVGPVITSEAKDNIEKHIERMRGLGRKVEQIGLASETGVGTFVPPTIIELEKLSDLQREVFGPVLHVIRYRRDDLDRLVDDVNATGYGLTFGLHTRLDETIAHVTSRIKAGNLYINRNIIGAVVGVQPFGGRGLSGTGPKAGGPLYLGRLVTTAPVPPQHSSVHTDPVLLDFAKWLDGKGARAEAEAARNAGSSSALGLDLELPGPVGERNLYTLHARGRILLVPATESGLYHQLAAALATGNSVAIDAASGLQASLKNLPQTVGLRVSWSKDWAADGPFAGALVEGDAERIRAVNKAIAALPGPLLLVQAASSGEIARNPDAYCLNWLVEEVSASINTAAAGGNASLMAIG
As to the kind of experiment: X-ray crystal structure ([…] Å); Ki from GSALDH activity inhibition. The class given is biochemical.

For test [2], the target named is T1, proline utilization A (SmPutA). Described as above. The test is classed as biochemical. The source holds these as a separate data set.

Like-named read-outs stand apart in the source and are kept apart here.

As for `O=C(O)C1CCCNC1` (racemic) [compound 13, 13], in test [1], affinity was put at a Ki of 1500 µM.

For `O=C(O)c1cccc2c1OCCO2` [compound 7, 7], in test [2], the affinity, expressed as Ki, was 320 µM.

Broadly, the Ki is the dissociation constant of the complex between target and ligand, obtained from inhibition or displacement.
